Assay results: ChEMBL document CHEMBL4715760, “Balancing potency, metabolic stability and permeability in pyrrolopyrimidine-based EGFR inhibitors” (Eur J Med Chem, 2016)
pIC50: −log10 of the molar value.

Experiments:
PC-9 = assay: Antiproliferative activity against human PC9 cells measured for 96 hrs by sytox green dye staining based proliferation assay; format: functional, cell-based; conditions: PC-9, 96 h
K562 = assay: Antiproliferative activity against human K562 cells assessed as inhibition of cell growth incubated for 72 hrs by Cell Titer Glo luminescent cell viability assay; format: functional, cell-based; conditions: K562, 72 h
A549 = assay: Antiproliferative activity against human A549 cells assessed as inhibition of cell growth incubated for 72 hrs by Cell Titer Glo luminescent cell viability assay; format: functional, cell-based; conditions: A549, 72 h
C-33-A = assay: Antiproliferative activity against human C-33A cells incubated for 72 hrs by ATPlite luminescence assay; format: functional, cell-based
[1] = molecular target: T1, Epidermal growth factor receptor (Homo sapiens, UniProt P00533); assay: Inhibition of EGFR (unknown origin) using Tyr 04 peptide as substrate incubated for 1 hr by Z'-LYTE assay
AU565 = assay: Antiproliferative activity against human AU565 cells incubated for 72 hrs by ATPlite luminescence assay; format: functional, cell-based; conditions: AU565, 72 h
[2] = molecular target: T2, Ephrin type-A receptor 1 (Homo sapiens) (UniProt P21709); assay: Inhibition of recombinant human GST-tagged EPHA1 (568 to 976 residues) expressed in baculovirus expression system at 500 nM using Tyr 02 peptide as substrate incubated for 1 hr in presence of ATP at its Km concentration by Z'-LYTE assay relative to control
T2 sequence (whole entry): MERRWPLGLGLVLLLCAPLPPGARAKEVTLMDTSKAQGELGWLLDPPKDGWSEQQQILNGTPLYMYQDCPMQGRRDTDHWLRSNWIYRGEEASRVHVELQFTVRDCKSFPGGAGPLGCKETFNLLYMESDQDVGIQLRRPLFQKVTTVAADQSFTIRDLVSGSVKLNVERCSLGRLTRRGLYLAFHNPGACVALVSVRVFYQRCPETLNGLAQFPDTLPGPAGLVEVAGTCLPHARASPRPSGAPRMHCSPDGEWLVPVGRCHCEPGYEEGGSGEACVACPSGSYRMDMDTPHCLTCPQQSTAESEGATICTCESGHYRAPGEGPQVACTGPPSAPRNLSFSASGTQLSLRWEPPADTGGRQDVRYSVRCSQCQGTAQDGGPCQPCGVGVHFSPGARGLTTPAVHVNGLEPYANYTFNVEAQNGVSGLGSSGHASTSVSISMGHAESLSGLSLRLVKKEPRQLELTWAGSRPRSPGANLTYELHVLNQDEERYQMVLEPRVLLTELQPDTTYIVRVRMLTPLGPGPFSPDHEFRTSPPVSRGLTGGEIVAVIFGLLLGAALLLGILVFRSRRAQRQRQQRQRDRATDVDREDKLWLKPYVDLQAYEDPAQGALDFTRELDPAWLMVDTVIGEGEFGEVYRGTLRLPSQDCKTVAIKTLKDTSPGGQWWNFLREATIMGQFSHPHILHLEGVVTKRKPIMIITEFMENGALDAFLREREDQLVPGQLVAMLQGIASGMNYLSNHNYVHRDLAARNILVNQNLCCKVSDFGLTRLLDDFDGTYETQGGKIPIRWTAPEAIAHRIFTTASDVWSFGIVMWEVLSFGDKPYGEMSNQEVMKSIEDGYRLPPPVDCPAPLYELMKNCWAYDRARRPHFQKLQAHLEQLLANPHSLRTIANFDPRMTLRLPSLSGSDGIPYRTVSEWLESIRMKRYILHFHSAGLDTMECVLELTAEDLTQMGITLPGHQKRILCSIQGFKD

[3] = molecular target: T1, Epidermal growth factor receptor; conditions: dose 100.0 nM, time 1.0 hrs
[4] = molecular target: Proto-oncogene tyrosine-protein kinase Src (Homo sapiens) (UniProt P12931); assay: Inhibition of recombinant human His-tagged full length SRC expressed in baculovirus expression system at 500 nM using Tyr 02 as substrate incubated for 1 hr in presence of ATP at its Km concentration by Z'-LYTE assay relative to control
CAL-27 = assay: Antiproliferative activity against human CAL27 cells; format: functional, cell-based
BXPC-3 = assay: Antiproliferative activity against human BXPC-3 cells measured for 96 hrs by sytox green dye staining based proliferation assay; format: functional, cell-based; conditions: BXPC-3, 96 h
FaDu = assay: Antiproliferative activity against human FaDU cells assessed as inhibition of cell growth incubated for 72 hrs by Cell Titer Glo luminescent cell viability assay; format: functional, cell-based
[5] = molecular target: Angiopoietin-1 receptor (Homo sapiens) (UniProt Q02763); assay: Inhibition of recombinant human GST-tagged TEK (817 to 1101 residues) expressed in baculovirus expression system at 500 nM using Tyr 05 as substrate incubated for 1 hr in presence of ATP at its Km concentration by Z'-LYTE assay relative to control
[6] = molecular target: Platelet-derived growth factor receptor alpha (Homo sapiens) (UniProt P16234); assay: Inhibition of recombinant human GST-tagged PDGFRalpha (550 to 1089 residues) expressed in baculovirus expression system at 500 nM using Tyr 04 as substrate incubated for 1 hr in presence of ATP at its Km concentration by Z'-LYTE assay relative to control
BaF3 = assay: Antiproliferative activity against mouse Ba/F3 cells expressing EGFR-L858R mutant assessed as inhibition of cell growth incubated for 48 hrs by XTT assay; format: functional, cell-based; conditions: BaF3, 48 h
[7] = Apparent permeability from apical to basolateral side in human Caco2 cells at 10 uM measured for 120 mins by LC-MS/MS analysis; conditions: Caco-2
[8] = Metabolic stability in pooled human liver microsomes assessed as Clearance at 3 uM measured up to 45 mins in presence of NADPH by LC-MS/MS analysis; format: ADME, Microsome; conditions: pooled liver microsomes, read-out: CLH
[9] = molecular target: Voltage-gated inwardly rectifying potassium channel KCNH2 (Homo sapiens, UniProt Q12809); assay: Inhibition of human ERG expressed in CHO cells at -80 mV holding potential by IonWorks patch-clamp electrophysiology assay
[10] = molecular target: Inhibitor of nuclear factor kappa-B kinase subunit beta (Homo sapiens) (UniProt O14920); assay: Inhibition of recombinant human full-length GST-tagged IKBKB expressed in baculovirus expression system at 500 nM using Ser/Thr 05 as substrate incubated for 1 hr in presence of ATP at its Km concentration by Z'-LYTE assay relative to control
[11] = molecular target: MAP kinase-activated protein kinase 2 (Homo sapiens) (UniProt P49137); assay: Inhibition of recombinant human His-tagged full length MAPKAPK2 expressed in Escherichia coli expression system at 500 nM using Ser/Thr 04 as substrate incubated for 1 hr in presence of ATP at its Km concentration by Z'-LYTE assay relative to control
[12] = Metabolic stability in pooled human liver microsomes assessed as half life at 3 uM measured up to 45 mins in presence of NADPH by LC-MS/MS analysis; format: ADME, Microsome; conditions: pooled liver microsomes
[13] = Protein binding in plasma (unknown origin) assessed as unbound fraction at 5 uM by LC-MS/MS based equilibrium dialysis analysis
[14] = Apparent permeability from basolateral to apical side in human Caco2 cells at 10 uM measured for 120 mins by LC-MS/MS analysis; conditions: Caco-2

T1 sequence (P00533 whole entry): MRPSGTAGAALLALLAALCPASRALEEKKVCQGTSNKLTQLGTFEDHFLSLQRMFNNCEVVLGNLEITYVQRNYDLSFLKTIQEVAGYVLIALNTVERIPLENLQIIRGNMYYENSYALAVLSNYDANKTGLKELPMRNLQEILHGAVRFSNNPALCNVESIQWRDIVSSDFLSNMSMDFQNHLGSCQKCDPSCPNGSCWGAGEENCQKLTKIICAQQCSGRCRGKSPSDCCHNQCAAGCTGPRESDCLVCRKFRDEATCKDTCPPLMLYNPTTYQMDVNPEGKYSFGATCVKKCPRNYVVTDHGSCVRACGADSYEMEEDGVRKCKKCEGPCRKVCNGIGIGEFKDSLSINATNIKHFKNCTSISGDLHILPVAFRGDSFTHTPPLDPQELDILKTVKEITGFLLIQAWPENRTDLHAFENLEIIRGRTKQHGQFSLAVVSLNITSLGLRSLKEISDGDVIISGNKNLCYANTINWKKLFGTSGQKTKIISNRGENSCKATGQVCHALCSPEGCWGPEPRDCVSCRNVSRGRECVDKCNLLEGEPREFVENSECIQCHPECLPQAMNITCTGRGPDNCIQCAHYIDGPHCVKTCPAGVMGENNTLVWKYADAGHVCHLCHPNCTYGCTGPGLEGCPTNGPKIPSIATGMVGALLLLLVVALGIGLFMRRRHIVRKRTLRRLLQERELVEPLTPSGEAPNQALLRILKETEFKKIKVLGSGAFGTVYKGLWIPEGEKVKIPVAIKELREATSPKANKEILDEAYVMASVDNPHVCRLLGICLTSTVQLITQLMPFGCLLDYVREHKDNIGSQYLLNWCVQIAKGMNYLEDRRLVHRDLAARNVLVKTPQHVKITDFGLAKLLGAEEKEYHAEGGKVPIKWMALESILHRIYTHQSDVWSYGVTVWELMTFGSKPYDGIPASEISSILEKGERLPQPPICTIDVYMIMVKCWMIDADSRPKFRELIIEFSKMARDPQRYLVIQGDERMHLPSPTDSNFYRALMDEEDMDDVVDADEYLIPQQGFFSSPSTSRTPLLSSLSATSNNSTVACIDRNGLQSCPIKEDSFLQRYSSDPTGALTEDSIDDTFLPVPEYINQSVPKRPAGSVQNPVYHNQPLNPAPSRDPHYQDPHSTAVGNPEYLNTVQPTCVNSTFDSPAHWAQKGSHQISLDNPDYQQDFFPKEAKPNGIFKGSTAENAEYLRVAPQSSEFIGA
Sequence of Proto-oncogene tyrosine-protein kinase Src (Homo sapiens) (P12931 2-536 limits assumed): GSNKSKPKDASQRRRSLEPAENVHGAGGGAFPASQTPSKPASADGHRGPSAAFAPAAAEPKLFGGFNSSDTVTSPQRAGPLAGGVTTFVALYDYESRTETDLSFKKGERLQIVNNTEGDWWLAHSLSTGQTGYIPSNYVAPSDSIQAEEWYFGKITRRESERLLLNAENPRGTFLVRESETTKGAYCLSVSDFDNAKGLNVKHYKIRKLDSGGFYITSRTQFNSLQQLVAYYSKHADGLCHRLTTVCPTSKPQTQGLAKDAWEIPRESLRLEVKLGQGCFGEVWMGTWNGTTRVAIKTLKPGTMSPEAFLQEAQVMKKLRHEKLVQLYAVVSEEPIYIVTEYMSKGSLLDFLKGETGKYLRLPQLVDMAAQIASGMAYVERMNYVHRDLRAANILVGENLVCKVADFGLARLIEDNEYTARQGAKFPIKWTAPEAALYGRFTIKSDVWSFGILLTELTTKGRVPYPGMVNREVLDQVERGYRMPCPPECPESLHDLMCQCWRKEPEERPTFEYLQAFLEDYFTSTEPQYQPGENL
Sequence of Angiopoietin-1 receptor (Homo sapiens) (Q02763 whole entry, the tested form may be a part): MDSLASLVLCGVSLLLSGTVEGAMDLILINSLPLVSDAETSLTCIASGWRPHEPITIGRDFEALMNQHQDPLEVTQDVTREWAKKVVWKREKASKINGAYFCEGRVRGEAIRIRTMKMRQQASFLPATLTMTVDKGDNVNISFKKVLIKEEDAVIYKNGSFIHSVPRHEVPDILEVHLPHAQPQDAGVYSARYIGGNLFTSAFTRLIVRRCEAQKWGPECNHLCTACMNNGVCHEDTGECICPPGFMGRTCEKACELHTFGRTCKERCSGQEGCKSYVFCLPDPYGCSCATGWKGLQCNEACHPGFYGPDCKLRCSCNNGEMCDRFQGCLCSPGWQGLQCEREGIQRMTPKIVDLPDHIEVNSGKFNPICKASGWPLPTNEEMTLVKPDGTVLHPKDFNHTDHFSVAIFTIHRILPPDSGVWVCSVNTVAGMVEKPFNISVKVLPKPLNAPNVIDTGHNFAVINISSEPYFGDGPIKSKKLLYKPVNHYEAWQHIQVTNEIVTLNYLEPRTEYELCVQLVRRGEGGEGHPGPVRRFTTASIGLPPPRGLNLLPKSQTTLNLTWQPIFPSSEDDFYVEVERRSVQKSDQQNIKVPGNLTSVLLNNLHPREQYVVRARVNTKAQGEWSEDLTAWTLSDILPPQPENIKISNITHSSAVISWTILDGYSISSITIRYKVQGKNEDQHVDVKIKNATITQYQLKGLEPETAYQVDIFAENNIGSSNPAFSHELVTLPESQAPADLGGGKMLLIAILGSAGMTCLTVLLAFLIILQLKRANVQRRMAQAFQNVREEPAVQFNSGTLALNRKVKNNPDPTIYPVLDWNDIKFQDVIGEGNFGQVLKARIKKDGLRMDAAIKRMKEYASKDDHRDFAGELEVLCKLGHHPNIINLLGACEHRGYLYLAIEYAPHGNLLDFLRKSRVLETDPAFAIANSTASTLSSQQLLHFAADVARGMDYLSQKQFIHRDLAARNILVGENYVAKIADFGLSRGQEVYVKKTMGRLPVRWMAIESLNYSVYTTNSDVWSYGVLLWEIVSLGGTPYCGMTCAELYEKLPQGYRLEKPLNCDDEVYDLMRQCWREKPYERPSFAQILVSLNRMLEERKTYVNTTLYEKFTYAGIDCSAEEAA
Sequence of Platelet-derived growth factor receptor alpha (Homo sapiens) (P16234 whole entry, the tested form may be a part): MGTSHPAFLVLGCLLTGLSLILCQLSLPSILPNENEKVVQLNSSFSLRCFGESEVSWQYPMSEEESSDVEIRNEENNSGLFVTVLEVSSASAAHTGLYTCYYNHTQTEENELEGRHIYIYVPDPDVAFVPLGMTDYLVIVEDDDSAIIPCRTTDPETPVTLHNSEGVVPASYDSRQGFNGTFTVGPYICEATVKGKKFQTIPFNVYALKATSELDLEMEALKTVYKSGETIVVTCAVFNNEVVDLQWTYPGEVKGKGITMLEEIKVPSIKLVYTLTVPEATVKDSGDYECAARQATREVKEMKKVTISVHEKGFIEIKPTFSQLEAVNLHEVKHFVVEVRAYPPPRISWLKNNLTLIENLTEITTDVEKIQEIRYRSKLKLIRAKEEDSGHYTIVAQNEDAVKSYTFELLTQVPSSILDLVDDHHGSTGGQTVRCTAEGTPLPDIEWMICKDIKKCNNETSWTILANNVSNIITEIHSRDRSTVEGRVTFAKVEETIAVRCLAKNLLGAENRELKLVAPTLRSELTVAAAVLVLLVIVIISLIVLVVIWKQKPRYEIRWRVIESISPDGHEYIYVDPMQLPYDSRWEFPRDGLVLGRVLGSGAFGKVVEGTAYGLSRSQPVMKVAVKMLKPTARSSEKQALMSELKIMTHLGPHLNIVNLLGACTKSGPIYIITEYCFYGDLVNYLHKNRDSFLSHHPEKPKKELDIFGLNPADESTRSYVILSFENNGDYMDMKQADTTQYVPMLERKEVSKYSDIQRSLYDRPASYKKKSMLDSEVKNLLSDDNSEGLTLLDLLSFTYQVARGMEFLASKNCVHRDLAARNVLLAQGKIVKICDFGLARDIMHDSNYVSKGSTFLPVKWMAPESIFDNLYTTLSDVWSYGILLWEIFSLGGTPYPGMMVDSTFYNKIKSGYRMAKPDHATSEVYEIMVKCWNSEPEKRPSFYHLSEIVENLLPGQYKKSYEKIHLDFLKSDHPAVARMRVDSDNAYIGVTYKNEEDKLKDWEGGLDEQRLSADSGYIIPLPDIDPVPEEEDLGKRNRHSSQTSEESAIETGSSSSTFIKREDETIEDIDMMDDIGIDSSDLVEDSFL
Sequence of MAP kinase-activated protein kinase 2 (Homo sapiens) (P49137 whole entry, looked up): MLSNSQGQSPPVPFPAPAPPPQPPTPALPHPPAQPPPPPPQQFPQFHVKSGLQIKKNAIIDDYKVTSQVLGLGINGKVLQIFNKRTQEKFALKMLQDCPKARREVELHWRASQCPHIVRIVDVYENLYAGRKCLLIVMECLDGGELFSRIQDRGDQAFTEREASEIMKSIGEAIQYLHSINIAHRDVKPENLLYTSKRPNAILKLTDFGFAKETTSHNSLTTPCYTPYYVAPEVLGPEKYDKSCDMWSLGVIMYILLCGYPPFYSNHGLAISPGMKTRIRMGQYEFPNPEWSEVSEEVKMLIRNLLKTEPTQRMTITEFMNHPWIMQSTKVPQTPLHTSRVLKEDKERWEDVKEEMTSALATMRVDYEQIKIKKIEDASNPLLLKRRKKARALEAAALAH

| SMILES | pIC50 (K562) | pIC50 (A549) | pIC50 [1] | inhibition [2] [%] | inhibition [3] [%] | inhibition [4] [%] | inhibition [5] [%] | inhibition [6] [%] | pIC50 (BaF3) | pIC50 (PC-9) | pIC50 (C-33-A) | pIC50 (AU565) | pIC50 (CAL-27) | pIC50 (BXPC-3) | pIC50 (FaDu) | also measured |
| --- | --- | --- | --- | --- | --- | --- | --- | --- | --- | --- | --- | --- | --- | --- | --- | --- |
| OC[C@@H](Nc1ncnc2[nH]c(-c3ccccc3)cc12)c1ccccc1 | 4.82 | < 4.00 | 9.40 | 19 | 99 | 59 | 1 |  |  | > 7.00 | 6.15 | 5.60 | 5.57 | 4.82 | < 4.48 |  |
| OCC[C@@H](Nc1ncnc2[nH]c(-c3ccccc3)cc12)c1ccccc1 |  |  |  | 13 |  | 25 | -10 |  | 7.12 |  |  |  |  |  |  |  |
| CN(C)CCNCc1ccc(-c2cc3c(N[C@H](CO)c4ccccc4)ncnc3[nH]2)cc1F |  |  |  | 48 |  | 76 |  |  | 6.85 |  |  |  |  |  |  |  |
| CCOc1ccccc1-c1cc2c(N[C@H](CO)c3ccccc3)ncnc2[nH]1 |  |  |  | 13 |  | 40 |  | -8 | 7.01 |  |  |  |  |  |  |  |

Now from value to compound, other results behind:

| pIC50 (K562) | pIC50 (A549) | pIC50 [1] | inhibition [2] [%] | inhibition [3] [%] | inhibition [4] [%] | inhibition [5] [%] | inhibition [6] [%] | pIC50 (BaF3) | SMILES | pIC50 (PC-9) | pIC50 (C-33-A) | pIC50 (AU565) | pIC50 (CAL-27) | pIC50 (BXPC-3) | pIC50 (FaDu) | also measured |
| --- | --- | --- | --- | --- | --- | --- | --- | --- | --- | --- | --- | --- | --- | --- | --- | --- |
|  |  | 9.10 | 15 | 100 | 59 | 0 | 6 | 6.87 | COc1ccccc1-c1cc2c(N[C@H](CO)c3ccccc3)ncnc2[nH]1 |  |  |  |  |  |  |  |
| 4.26 | < 4.00 |  |  |  |  |  |  | 7.06 | C#Cc1cccc(Nc2ncnc3cc(OCCOC)c(OCCOC)cc23)c1 [ERLOTINIB] | > 7.00 | 6.05 | 5.48 | 5.89 | 5.72 | < 4.96 | Papp A→B at 2 h, 10 µM [7]: 38.8 ×10⁻⁶ cm/s; microsomal CLint at 3 µM [8]: 43.8 µL/min/mg; pIC50 [9]: < 4.60; inhibition [10]: -5%; inhibition [11]: -1%; half-life at 3 µM [12]: 31.7 min; fraction unbound at 5 µM [13]: 0.117; Papp B→A at 2 h, 10 µM [14]: 31 ×10⁻⁶ cm/s |
